# Publication PMC10482691, “LTP induction by structural rather than enzymatic functions of CaMKII” (Nature, 2023)
# Values joined by “and” are separate entries in the source; they are usually repeats but may differ in a detail not shown here. Equal entries are not always repeated.
# Columns and labels:
# [1] = target: MEK1(h) (Homo sapiens, UniProt Q02750); assay: Kinase selectivity panel (residual activity at 1 μM); type: biochemical; details: inhibitor at 1 μM; read-out: residual kinase activity in % of maximal activity
# [2] = target: p70S6K(h) (Homo sapiens, UniProt P23443); assay: as above; type: biochemical; details: inhibitor at 1 μM; read-out: residual kinase activity in % of maximal activity
# [3] = target: ROCK-II(h) (Homo sapiens, UniProt O75116); assay: as above; type: biochemical; details: inhibitor at 1 μM; read-out: residual kinase activity in % of maximal activity
# [4] = target: GFP–CaMKII WT / mCh-GluN2B-c tail in HEK293 cells (Homo sapiens, UniProt Q9UQM7); assay: Ionomycin-induced colocalization of GFP–CaMKII WT and mCherry-2BC in HEK293 cells; type: cell-based; details: 10 μM AS283
# Description: HEK cells were grown and transfected with expression vectors for GFP–CaMKII mutants and pDisplay-mCh-GluN2B-c tail (2BC) as previously described[24],[57]; the GluN2B construct used included an S1303A mutation to avoid potential complications by differential phosphorylation of this regulatory site[13],[27] in the different conditions with or without kinase inhibitors. GFP–CaMKII colocalization with GluN2B in response to a Ca^2+ stimulus induced by 10 μM ionomycin was monitored for 5–10 min at 32 °C in imaging buffer (0.87× Hanks Balanced Salt Solution, 25 mM HEPES, pH 7.4, 2 mM glucose, 2 mM CaCl2, 1 mM MgCl2) by fluorescence microscopy. Images were acquired on a Zeiss Axiovert 200M equipped with a climate control chamber using SlideBook software (Intelligent Imaging Innovations; v.6.0). Colocalization analysis was performed by calculating the Pearson’s correlation (correlation index) with ImageJ of pDisplay-mCh-2BC and GFP–CaMKII within the cytoplasm of HEK cells after background subtraction.
# [5] = tested on: GFP–CaMKII in rat hippocampal neurons; assay: cLTP-induced CaMKII synaptic enrichment in dissociated hippocampal cultures (GFP–CaMKII WT); type: cell-based; details: for CaMKII synaptic enrichment: GFP-CaMKII WT, individual neurons, sheet 4e
# [6] = tested on: CA1 LTP in CaMKII F89G-expressing slices; assay: LTP field recordings in slices of CaMKIIα KO mice injected with AAV-mScarlet-CaMKII-F89G; type: cell-based, mouse; details: for LTP time course, normalized response per slice (sheet 5d): individual slices, NM-PP1 vs Vehicle, in %
# Description: Stereotactic injections were performed on P24 CaMKIIα KO mice. Animals were anesthetized with an intraperitoneal injection of 2,2,2-Tribromoethanol (250 mg kg^−1) and then head fixed to a stereotactic frame (David Kopf Instruments). AAVs (0.2–0.5 µl) were injected into intermediate CA1 at a rate of […] using a syringe pump (World Precision Instruments). Coordinates (in millimetres) were anterior–posterior: −3.17; mediolateral: ±3.45 (relative to Bregma); and dorsoventral: −2.5 (relative to pia). To confirm specificity of the injection site following LTP recordings, slices were fixed in 4% paraformaldehyde; then, they were coverslipped and imaged on an Olympus slide scanning microscope.
# WT and mutant mouse hippocampal slices were prepared using P56–P70 mice. Isoflurane-anesthetized mice were rapidly decapitated, and the brain was dissected in an ice-cold high-sucrose solution containing 220 mM sucrose, 12 mM MgSO4, 10 mM glucose, 0.2 mM CaCl2, 0.5 mM KCl, 0.65 mM NaH2PO4, 13 mM NaHCO3 and 1.8 mM ascorbate. Transverse hippocampal slices (400 μm) were made using a tissue chopper (McIlwain) and transferred into 32 °C ACSF containing 124 mM NaCl, 3.5 mM KCl, 1.3 mM NaH2PO4, 26 mM NaHCO3, 10 mM glucose, 2 mM CaCl2, 1 mM MgSO4 and 1.8 mM ascorbate. All slices were recovered in 95% O2/5% CO2 for at least 1.5 h before experimentation.
# For electrophysiological slice recording experiments, a glass micropipette (typical resistance of 0.4–0.8 megaohm when filled with ACSF) was used to record fEPSPs from the CA1 dendritic layer in response to stimulation of the Schaffer collaterals using a tungsten bipolar electrode. Slices were continually perfused with 30.5 °C ± 0.5 °C ACSF at a rate of 2.5 ± 0.5 ml min^−1 during recordings. Stimuli were delivered every 20 s, and three responses (1 min) were averaged for analysis. Data were analysed using WinLTP software with slope calculated as the initial rise from 10 to 60% of the response peak. Input–output curves were generated by increasing the stimulus intensity at a constant interval until a maximum response or population spike was noted to determine stimulation that elicits 50% of maximum slope. […] A stable baseline was acquired for a minimum of 20 min at 50% maximum slope before high-frequency stimulation (HFS; 2 × 100 Hz, 10 s interval) was applied. Responses were recorded for 40 or 60 min after HFS. Change in slope was calculated as a ratio of the average slope of the 20 min baseline (before HFS). Bar graphs of the percentage of fEPSP slope were calculated by averaging the last 10 min time points post-HFS and normalized to baseline.
# Sequence of MEK1(h) (Q02750 whole entry): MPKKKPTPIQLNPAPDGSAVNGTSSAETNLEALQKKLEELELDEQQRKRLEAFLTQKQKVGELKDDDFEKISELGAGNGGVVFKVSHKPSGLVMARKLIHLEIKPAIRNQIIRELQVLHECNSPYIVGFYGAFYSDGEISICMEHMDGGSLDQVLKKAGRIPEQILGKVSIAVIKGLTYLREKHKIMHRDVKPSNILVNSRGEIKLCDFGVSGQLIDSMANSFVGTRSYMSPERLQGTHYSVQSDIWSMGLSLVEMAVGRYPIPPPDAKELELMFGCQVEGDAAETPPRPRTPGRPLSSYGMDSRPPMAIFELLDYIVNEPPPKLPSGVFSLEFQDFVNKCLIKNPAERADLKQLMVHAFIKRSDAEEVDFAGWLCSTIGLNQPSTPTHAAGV
# Sequence of ROCK-II(h) (O75116 whole entry): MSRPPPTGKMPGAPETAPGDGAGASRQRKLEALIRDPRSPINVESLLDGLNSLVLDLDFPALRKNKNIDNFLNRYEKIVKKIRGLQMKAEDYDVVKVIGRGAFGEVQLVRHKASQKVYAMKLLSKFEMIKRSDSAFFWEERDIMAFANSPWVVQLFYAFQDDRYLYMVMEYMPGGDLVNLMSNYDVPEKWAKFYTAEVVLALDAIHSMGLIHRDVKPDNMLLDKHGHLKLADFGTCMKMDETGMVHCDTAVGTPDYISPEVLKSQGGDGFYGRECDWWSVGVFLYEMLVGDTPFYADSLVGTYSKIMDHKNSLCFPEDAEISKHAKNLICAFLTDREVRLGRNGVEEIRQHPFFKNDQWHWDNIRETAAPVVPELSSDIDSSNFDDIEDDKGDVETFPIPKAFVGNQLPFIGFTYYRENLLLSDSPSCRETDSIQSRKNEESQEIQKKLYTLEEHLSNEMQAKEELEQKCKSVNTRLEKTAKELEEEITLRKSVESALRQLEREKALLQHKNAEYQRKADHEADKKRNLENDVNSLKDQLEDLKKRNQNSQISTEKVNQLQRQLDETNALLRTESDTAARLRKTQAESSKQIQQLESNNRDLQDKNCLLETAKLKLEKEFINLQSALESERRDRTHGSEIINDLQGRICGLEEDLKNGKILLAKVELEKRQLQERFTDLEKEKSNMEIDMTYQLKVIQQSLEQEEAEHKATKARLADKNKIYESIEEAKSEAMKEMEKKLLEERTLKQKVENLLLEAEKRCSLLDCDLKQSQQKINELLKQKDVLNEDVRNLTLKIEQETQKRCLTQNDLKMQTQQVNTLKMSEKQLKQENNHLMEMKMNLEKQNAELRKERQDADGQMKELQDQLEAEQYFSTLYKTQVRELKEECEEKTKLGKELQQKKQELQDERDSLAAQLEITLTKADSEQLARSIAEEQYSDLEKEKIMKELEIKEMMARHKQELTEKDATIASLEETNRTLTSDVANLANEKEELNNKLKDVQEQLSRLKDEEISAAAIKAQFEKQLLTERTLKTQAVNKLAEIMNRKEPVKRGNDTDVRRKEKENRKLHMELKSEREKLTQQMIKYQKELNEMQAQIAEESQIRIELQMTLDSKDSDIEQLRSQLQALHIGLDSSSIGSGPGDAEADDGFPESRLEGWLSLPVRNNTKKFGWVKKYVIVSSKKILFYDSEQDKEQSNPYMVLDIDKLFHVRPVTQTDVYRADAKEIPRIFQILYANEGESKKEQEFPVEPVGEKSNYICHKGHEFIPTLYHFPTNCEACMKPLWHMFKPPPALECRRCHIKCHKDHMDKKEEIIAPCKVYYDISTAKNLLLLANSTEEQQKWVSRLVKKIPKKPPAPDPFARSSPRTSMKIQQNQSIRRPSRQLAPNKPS
# Sequence of p70S6K(h) (P23443 whole entry): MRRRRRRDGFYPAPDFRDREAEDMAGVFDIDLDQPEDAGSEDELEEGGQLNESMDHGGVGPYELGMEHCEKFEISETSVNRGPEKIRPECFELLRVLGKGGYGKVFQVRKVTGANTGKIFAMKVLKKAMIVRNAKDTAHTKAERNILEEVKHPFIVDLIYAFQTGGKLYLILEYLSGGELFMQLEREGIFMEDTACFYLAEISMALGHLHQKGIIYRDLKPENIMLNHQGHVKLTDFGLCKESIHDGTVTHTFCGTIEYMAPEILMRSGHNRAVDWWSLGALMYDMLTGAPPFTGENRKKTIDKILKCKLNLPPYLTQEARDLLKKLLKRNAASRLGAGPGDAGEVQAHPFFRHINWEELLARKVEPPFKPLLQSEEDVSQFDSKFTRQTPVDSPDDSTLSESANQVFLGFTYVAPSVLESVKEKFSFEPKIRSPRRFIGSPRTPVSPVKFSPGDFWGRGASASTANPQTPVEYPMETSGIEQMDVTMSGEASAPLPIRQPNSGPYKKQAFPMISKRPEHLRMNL
Structure (SMILES),remaining activity at 1 µM [1] [%],remaining activity at 1 µM [2] [%],remaining activity at 1 µM [3] [%],effect on CaMKII binding to GluN2B in colocalization assay [4],effect on CaMKII movement to excitatory synapses in response to cLTP ([5]; AS283),"CaMKII synaptic enrichment ([5]; NMPP1, before cLTP)",CaMKII synaptic enrichment ([5]; after cLTP in NMPP1),effect on LTP induction in CaMKII F89G slices ([6]; NM-PP1 10 μM),"LTP time course, normalized response per slice (sheet 5d) ([6]; Time (min) 0)","LTP time course, normalized response per slice (sheet 5d) ([6]; Time (min) 2.33333)","LTP time course, normalized response per slice (sheet 5d) ([6]; Time (min) 4.33333)","LTP time course, normalized response per slice (sheet 5d) ([6]; Time (min) 6.33333)","LTP time course, normalized response per slice (sheet 5d) ([6]; Time (min) -2)","LTP time course, normalized response per slice (sheet 5d) ([6]; Time (min) -4)","LTP time course, normalized response per slice (sheet 5d) ([6]; Time (min) -6)"
NCCNc1cccc(-c2ccnc3[nH]c4ccccc4c23)c1 [AS283],85,18,77,did not inhibit,did not interfere,–,–,–,–,–,–,–,–,–,–
CC(C)(C)n1nc(Cc2cccc3ccccc23)c2c(N)ncnc21 [NM-PP1],–,–,–,–,–,1.457 and 1.288 and 1.299 and 1.252 and 1.168 and 1.649,2.238 and 1.828 and 2.413 and 1.827 and 1.651 and 2.282,enabled,103.829 and 96.437 and 102.744 and 120.959 and 123.914 and 192.297 and 144.344 and 104.217 and 103.642 and 100.747 and 103.258 and 105.141 and 101.674 and 96.3411 and 105.44,150.168 and 204.285 and 322.186 and 119.321 and 114.899 and 190.522 and 128.721 and 184.151 and 177.879 and 161.407 and 188.756 and 121.03 and 118.847 and 177.028 and 124.93,139.017 and 204.469 and 290.028 and 113.213 and 106.868 and 195.712 and 130.419 and 192.043 and 166.691 and 143.621 and 171.089 and 117.041 and 117.676 and 154.052 and 148.947,131.831 and 176.494 and 247.758 and 112.468 and 113.588 and 169.626 and 124.646 and 168.164 and 143.426 and 132.43,105.316 and 104.903 and 86.159 and 100.7 and 102.934 and 111.991 and 100.871 and 90.8613 and 108.408 and 99.877 and 100.511 and 99.326 and 97.9659 and 101.831 and 107.897,102.838 and 104.535 and 87.5747 and 99.3595 and 101.459 and 104.616 and 103.249 and 75.684 and 101.138 and 101.174 and 99.4129 and 111.767 and 97.478 and 110.855 and 98.9622,101.103 and 99.9338 and 95.867 and 99.0615 and 102.77 and 102.977 and 108.004 and 99.3605 and 103.117 and 97.9481 and 103.441 and 114.539 and 103.918 and 97.8041 and 96.1755
